Experimental data from PubChem BioAssay AID488889 (Sanford-Burnham Center for Chemical Genomics, 2010).

Target: Tyrosine-protein phosphatase non-receptor type 7 (Homo sapiens) (UniProt P35236)
Assay: HePTP (PTPN7) phosphatase inhibitor potency, SAR follow-up, biochemical, set 3 (AID 488889)
Details: recombinant HePTP phosphatase activity assay

Tyrosine-protein phosphatase non-receptor type 7 (Homo sapiens), sequence (P35236 whole entry, looked up): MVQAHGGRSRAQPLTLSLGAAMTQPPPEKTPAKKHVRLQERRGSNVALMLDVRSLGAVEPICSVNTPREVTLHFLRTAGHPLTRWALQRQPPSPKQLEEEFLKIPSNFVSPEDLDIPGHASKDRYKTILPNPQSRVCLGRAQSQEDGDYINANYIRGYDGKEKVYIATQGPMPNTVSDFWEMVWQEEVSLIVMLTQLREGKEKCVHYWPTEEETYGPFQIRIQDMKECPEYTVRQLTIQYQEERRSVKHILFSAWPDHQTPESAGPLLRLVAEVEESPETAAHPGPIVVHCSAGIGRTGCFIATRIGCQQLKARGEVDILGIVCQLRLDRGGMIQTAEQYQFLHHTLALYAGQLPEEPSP

IC50 [µM]	Compound
10.2	CCOC(=O)COc1ccc(/C=N/NC(=O)c2ccc(-c3csc(Nc4ccc(Cl)cc4)n3)cc2)cc1
< 0.195	O=C(O)COc1ccc(/C=N/NC(=O)c2ccc(-c3csc(Nc4ccc(Cl)cc4)n3)cc2)cc1
